# Earlier results in patent EP3094315B1, “PHARMACEUTICAL COMPOSITION COMPRISING ARIPIPRAZOLE OR SALT THEREOF” (Pharmathen S.A., priority 2014, dated 2015).
# Where two headings read alike, the source gives them in different places.
compound,measurement,setting,value
"O=C1CCc2ccc(OCCCCN3CCN(c4cccc(Cl)c4Cl)CC3)cc2N1 [Aripiprazole, 7-{4-[4-(2,3-dichlorophenyl)piperazin-1-yl]butoxy}-3,4-dihydroquinolin-2(1H)-one]",solubility,"in N,N-dimethyl formamide",freely soluble
same,solubility,in dichloromethane,freely soluble
same,solubility,in water,practically insoluble
